{"source": "patent US20250090462A1", "about": "“LIPID COMPOUND AND PREPARATION METHOD THEREFOR, AND USE THEREOF” (South China University of Technology, priority 2022, published 2025)", "key": {"[1]": {"assay": "Particle size, PDI and Zeta potential of lipid compound nanoparticles (DLS)", "type": "physicochemical", "details": "LNP with pDNA-GFP-Luc, lipid compound:Cholesterol:DOPE:DSPE-PEG=40:48:10:2, N/P 24:1, pH=5.3", "experimental": "Lipid compounds 3-2-C8, 3-3-C8, 3-4-C8, 3-5-C8, 10-2-C8, 10-3-C8, 10-4-C8 and 10-5-C8 were used as nanocarrier materials to encapsulate pDNA-GFP-Luc to test the particle size (Size), polymer dispersion index (PDI) and Zeta potential of the lipid nanoparticles.\nIonizable lipids 3-2-C8, 3-3-C8, 3-4-C8, 3-5-C8, 10-2-C8, 10-3-C8, 10-4-C8, 10-5-C8 and dioleoyl phosphatidyl ethanolamine (DOPE), cholesterol, distearoylphosphatidylacetamide-polyethylene glycol (DSPE-PEG) were dissolved in anhydrous ethanol at a certain concentration, the components were uniformly mixed according to a certain molar ratio of lipid compound:Cholesterol:DOPE:DSPE-PEG=40:48:10:2, at the same time, a proper amount of pDNA-GFP-Luc was dissolved in sodium acetate buffer (the volume of sodium acetate buffer was twice the total volume of lipid mixture, pH=5.3), and the pDNA-GFP-Luc dissolved in the buffer was taken into the lipid mixture solution, and quickly mixed to assemble into lipid nanoparticles, the mixed solution was incubated at room temperature for 15 min, and the particle size and potential were tested by dynamic light scattering instrument (DLS). The nitrogen-phosphorus ratio (N/P ratio) of ionizable lipid to pDNA (24:1) was the optimal ratio, that is, the molar ratio between the protonated amino group on the ionized lipid and the phosphate group on the DNA. 2) Analysis of experimental results:\nFIG. 11 is the particle size test diagram of nanoparticles prepared by lipid compounds. Table 2 is the Zeta potential test results of nanoparticles prepared by lipid compounds.\nThe charge is 13.0±1.56-28.7±4.36 mV, which is consistent with the characteristics of lipid nanoparticles, the smaller particle sizes can exert the high permeability and long retention effect (EPR), leading to better accumulation in the tumor sites."}, "[2]": {"assay": "In vivo RNA imaging (IVIS) of repRNA-Luc delivery after intramuscular injection", "design": "species or system C57BL/6 mice", "details": "for repRNA-Luc expression by IVIS: 3rd day after intramuscular injection, 150 ng repRNA-Luc, DSPC LNP; for course of expression values with time (IVIS total flux): after intramuscular injection of repRNA-Luc LNP", "text": "Ionizable lipid compounds 3-4-C8, 3-5-C8, 10-4-C8, 10-5-C8, and 11-4-C8 were used to deliver self-amplifying RNA (Rep RNA-Luc) encoding firefly luciferase (Luc) in C57BL/6 mice. After intramuscular injection in mice, the in vivo imaging system (IVIS) was used to detect on the 3rd, 5th, and 7th day after injection.\n1) The specific steps are the same with the lipid compound delivering RNA test in performance test 3, the difference in this performance test, the experimental group: ionizable lipid compounds 3-4-C8, 3-5-C8, 10-4-C8, 10-5-C8 or 11-4-C8 and distearoyl phosphatidylcholine (DSPC), cholesterol (Cholesterol), distearoyl phosphatidylacetamide-polyethylene glycol (DSPE-PEG) or blank group are dissolved in anhydrous and non-enzymatic ethanol according to a certain concentration, the use of the ratio is ionizable lipid compounds 3-4-C8, 8-4-C8, 10-4-C8 or 11-4-C8:Cholesterol:DSPC:DSPE-PEG=40:48:10:2. A proper amount of repRNA-Luc was dissolved in sodium acetate buffer (the volume of sodium acetate buffer was twice the total volume of the lipid mixture, pH=5.3), the repRNA-Luc dissolved in the buffer was added into the lipid mixture solution and quickly mixed to assemble into lipid nanoparticles, the mixed solution was incubated at room temperature for 15 min, and then dialyzed in ultrapure water for 0.5 h using a dialysis bag (14000 MW), finally, 10% glucose solution was added to the lipid nanoparticle solution to adjust the osmotic pressure for intramuscular injection (LNP containing 150 ng of repRNA-Luc in each dose). Among them, the N/P ratio of ionizable lipid to mRNA (N/P ratio) is 24:1, which is the optimal ratio, that is, the molar ratio between the protonated amino group on the ionizable lipid and the phosphate group on the DNA.\nFIG. 18 is the detection map of the in vivo imaging system for lipid nanoparticles injected into mice. FIG. 19 is an injection time and total flux of the lipid compound."}}, "data": [{"compound": "CCCCCCCCC(CCCCCCCC)OC(=O)NCCCCOC(=O)CCN(CCC(=O)OCCCCNC(=O)OC(CCCCCCCC)CCCCCCCC)CCN(C)C", "note": "[10-4-C8]", "values": [{"measurement": "Zeta potential", "setting": "[1]", "value": "23.5 ± 4.87", "unit": "mV"}, {"measurement": "repRNA-Luc expression by IVIS", "setting": "[2]", "value": "successfully expressed"}, {"measurement": "course of expression values with time (IVIS total flux)", "setting": "[2]", "value": "increased with time"}]}, {"compound": "CCCCCCCCC(CCCCCCCC)OC(=O)NCCOC(=O)CCN(CCC(=O)OCCNC(=O)OC(CCCCCCCC)CCCCCCCC)CCN(C)C", "note": "[10-2-C8]", "values": [{"measurement": "Zeta potential", "setting": "[1]", "value": "20.7 ± 2.77", "unit": "mV"}]}, {"compound": "CCCCCCCCC(CCCCCCCC)OC(=O)NCCCCOC(=O)CCN(CCC(=O)OCCCCNC(=O)OC(CCCCCCCC)CCCCCCCC)CCN1CCCC1", "note": "[3-4-C8]", "values": [{"measurement": "Zeta potential", "setting": "[1]", "value": "20.2 ± 3.07", "unit": "mV"}, {"measurement": "repRNA-Luc expression by IVIS", "setting": "[2]", "value": "successfully expressed"}, {"measurement": "course of expression values with time (IVIS total flux)", "setting": "[2]", "value": "increased with time"}]}, {"compound": "CCCCCCCCC(CCCCCCCC)OC(=O)NCCOC(=O)CCN(CCC(=O)OCCNC(=O)OC(CCCCCCCC)CCCCCCCC)CCN1CCCC1", "note": "[3-2-C8]", "values": [{"measurement": "Zeta potential", "setting": "[1]", "value": "13.0 ± 1.56", "unit": "mV"}]}]}
